From ChEMBL document CHEMBL1136321, “Regioselective synthesis and cytotoxicities of camptothecin derivatives modified at the 7-, 10- and 20-positions” (Bioorg Med Chem Lett, 2003)

Assays:
Format in all cases: functional, cell-based
A2780 = assay: In vitro cytotoxicity against A2780 (human ovarian cancer)
KB = assay: In vitro cytotoxicity against KB (human epidermoid carcinoma of the nasopharynx)
KB VCR R = assay: In vitro cytotoxicity against KB/VCR (Vincristine-resistant cancer cell line); details: Homo sapiens
A549 = assay: In vitro cytotoxicity against A549 (human lung cancer)
HCT-8 = assay: In vitro cytotoxicity against HCT-8 (human colon cancer)
Bel-7402 = assay: In vitro cytotoxicity against Bel7402 (human liver cancer); details: Bel-7402, Liver

Structure (SMILES) | IC50 (A2780) [nM] | IC50 (KB) [nM] | IC50 (KB VCR R) [nM] | IC50 (A549) [nM] | IC50 (HCT-8) [nM] | IC50 (Bel-7402) [nM]
CC[C@@]1(O)C(=O)OCc2c1cc1n(c2=O)Cc2c-1nc1ccccc1c2COC(=O)COc1ccc(F)cc1 | 8 | 7 | 49 | 57 | 8 | 9
CC[C@@]1(OC(=O)COc2ccc(F)cc2)C(=O)OCc2c1cc1n(c2=O)Cc2c-1nc1ccccc1c2COC(=O)COc1ccc(F)cc1 | 58 | 72 | > 1000 | 293 | 52 | 26
CC[C@@]1(OC(=O)COc2ccc(C#N)c(F)c2)C(=O)OCc2c1cc1n(c2=O)Cc2c-1nc1ccccc1c2COC(=O)COc1ccc(C#N)c(F)c1 | 10 | 9 | 53 | 55 | 48 | 33
CC[C@@]1(OC(=O)COc2ccc(OC)cc2)C(=O)OCc2c1cc1n(c2=O)Cc2c-1nc1ccccc1c2COC(=O)COc1ccc(OC)cc1 | 71 | 310 | 267 | 348 | 76 | 84
CC[C@@]1(OC(=O)COc2ccc(F)cc2)C(=O)OCc2c1cc1n(c2=O)Cc2cc3cc(OC(=O)COc4ccc(F)cc4)ccc3nc2-1 | 15 | 55 | 295 | 401 | 82 | 95
CC[C@@]1(OC(=O)COc2ccc(OC)cc2)C(=O)OCc2c1cc1n(c2=O)Cc2cc3cc(OC(=O)COc4ccc(OC)cc4)ccc3nc2-1 | 88 | 69 | 460 | 718 | 97 | 200
CC[C@@]1(O)C(=O)OCc2c1cc1n(c2=O)Cc2c-1nc1ccccc1c2COC(=O)Cc1cc(OC)c(OC)c(OC)c1 | 61 | 36 | 340 | 160 | 55 | 72
CC[C@@]1(O)C(=O)OCc2c1cc1n(c2=O)Cc2cc3cc(OC(=O)COc4ccc(F)cc4)ccc3nc2-1 | 54 | 53 | 244 | 80 | 62 | 95
CC[C@@]1(OC(=O)Cc2cc(OC)c(OC)c(OC)c2)C(=O)OCc2c1cc1n(c2=O)Cc2c-1nc1ccccc1c2COC(=O)Cc1cc(OC)c(OC)c(OC)c1 | 68 | 78 | 947 | 98 | 76 | 82
CC[C@@]1(O)C(=O)OCc2c1cc1n(c2=O)Cc2c-1nc1ccccc1c2COC(=O)COc1ccc(OC)cc1 | 9 | 8 | 51 | 69 | 9 | 8
CC[C@@]1(O)C(=O)OCc2c1cc1n(c2=O)Cc2cc3cc(OC(=O)COc4ccc(OC)cc4)ccc3nc2-1 | 65 | 47 | 275 | 190 | 61 | 74
CC[C@@]1(O)C(=O)OCc2c1cc1n(c2=O)Cc2c-1nc1ccccc1c2COC(=O)COc1ccc(C#N)c(F)c1 | < 1 | < 1 | 437 | 8 | < 1 | < 1
CC[C@@]1(O)C(=O)OCc2c1cc1n(c2=O)Cc2cc3ccccc3nc2-1 [CAMPTOTHECIN] | 7 | 9 | 9 | 8 | 7 | 7
CC[C@@]1(O)C(=O)OCc2c1cc1n(c2=O)Cc2cc3c(CN(C)C)c(O)ccc3nc2-1 [TOPOTECAN] | 58 |  | 339 | 87 | 74 | 78
